In assay [1] the test system is BioEngineered Neuronal Organoids (BENOs). The experiment in a line: Multi-electrode array (MEA) recording of BENO network activity. The class given is cell-based, human. The settings on record: for Burst Frequency (Hz) / Interspike Interval in a burst / Network Burst (NB) Frequency / Number of Active Electrodes / Weighted Mean Firing Rate (Hz) / Burst Frequency (Hz), effect vs reference BENO / Interspike Interval in a burst (s), effect vs reference BENO / Network Burst (NB) Frequency, effect vs reference BENO / Number of Active Electrodes, effect vs reference BENO / Weighted Mean Firing Rate (Hz), effect vs reference BENO: CNQX 15 μM; for Burst frequency, change in words / Weighted mean firing rate, change in words: text and figure legend. From the text: BioEngineered Neuronal Organoids (BENOs) were generated in line with the BENO generation protocol provided in Zafeiriou et al. (Nature Communications, 2020, 11:3791, https://doi.org/10.1038/s41467-020-17521-w).
The method used for this illustrative example was a multi-electrode array (MEA) recording. In particular, six-well plates with 64 platinum microelectrodes arrays per well (0.04 MQ/microelectrode, 30 μm microelectrode diameter, 200 μm spacing) were coated with Matrigel™ 1:120 diluted in PBS for 1 h at room temperature prior seeding. One or two slices (thickness: 300 μm) were placed into a MEA well and immobilized by a concentrically coiled tungsten ring. 10-15 min recordings/2 h were performed every other day for up to 60 days using a Maestro pro MEA system (Axion Biosystems). Data recordings were automatically scheduled with the Axion Software (AxIS Navigator) using the manufacturer's Spontaneous Neural Configuration. Data analysis was performed using the manufacturer's standalone tools, Neural Metric Tool, and AxIS Metric Plotting Tool (Axion Biosystems). […] Spike bursts were identified using an ISI threshold requiring a minimum number of five spikes with a maximum ISI of 100 ms. Network Bursts (NB) were identified by an envelope algorithm with a threshold of 1.25, minimum IBI interval of 100 ms, 75% burst inclusion with a minimum of 10% active electrodes.

The nature of assay [2]: Pirfenidone IC50 in vitro.
Assay [3] concerns Engineered connective tissues (ECT). The experiment in a line: ECT contraction by pole deflection analysis (reference ECT +/- TGF-β1). The format is cell-based, human. The conditions noted are these: 5 ng/ml TGF-β1 applied at day 4, day 10 of the drug effect testing phase (absolute day 13), 6 technical replicates. An excerpt: The general experimental procedure was identical for all used cells, including primary fibroblasts and iPSC-StC. Supporting information in view of the ECT model, in particular its generation, may also be found in Santos et al. (2021, Fibroblast Derived Human Engineered Connective Tissue for Screening Applications. J. Vis. Exp. e62700, doi: 10.3791/62700, PMID: 34487119), Santos et al. (2022, Using different geometries to modulate the cardiac fibroblast phenotype and the biomechanical properties of engineered connective tissues. Biomater Adv. 139:213041, PMID: 35909053), and EP20188364. In particular, acid solubilized, collagen type 1 was mixed 1:1 with 2× DMEM containing 20% fetal calf serum and antibiotics. […]
Pole deflection measurement and platforms are well-established in the art, cf. e.g. WO2017/207431 (also granted as DE 10 2016 110 328 B3). […] Pole deflection as a function of ECT compaction was calculated as follows: 100×(pole distanceday 0-pole distanceday x)/pole distanceday 0.
Reference ECT were analyzed, which were treated with a drug solvent in absence or presence of TGF-β1, with TGF-β1 application serving as additional reference with respect to pro-fibrotic drug characterization. […]

Assay [4] has the same test system. The assay can be described thus: ECT stiffness (Young's modulus) by ultimate tensile testing. The format is cell-based, human. The conditions noted are these: 5 ng/ml TGF-β1, day 10 of the drug effect testing phase (absolute day 13), 8 replicates. The protocol:
Reference ECT were generated and treated similar as described herein in Example 1. In contrast to the pole deflection analysis disclosed in Example 1 herein, 8 ECT were harvested for the ultimate tensile testing at the moment when the plateau was reached and before a drug solvent was applied with or without TGF-β1. Residual ECT were cultured for further 10 days. Then, macroscopic images were taken from the ECT on the poles to estimate their cross-sectional areas based on the observed ECT thicknesses. Ultimate tensile testing was performed with a dynamic mechanical analyzer (DMA). Therefore, ECT were loaded onto two hooks clamped to a DMA in a 37° C. tempered organ bath filled with PBS. Then, uniaxial stretch at a constant linear rate of approximately 1% (0.03 mm/s) was applied until the ECT ruptured. The recorded force traces were converted into stress-strain curves. The Young's modulus representing the stiffness of the ECT was analyzed by determining the slope of the linear part of curve within the elastic region (FIG. 3A). All measurements were performed in 8 replicates. […]

Where [5] appears, read: BENO day 50 to day 60, 10 min treatment, PIC 58 μM, 4 tissues.
Where [6] appears, read: BENO day 60, 10 min treatment, PIC 58 μM, threshold 2× SD.
The mark [7] stands for this setting: BENO day 60, treated vs reference.
Where [8] appears, read: BENO day 60, treated vs reference, listed as Picrotoxin.

≈ marks a conversion by molar mass, not a printed value. Entries after “also recorded” stand apart in the source; their conditions may differ.

Consider `N#Cc1cc2[nH]c(=O)c(=O)[nH]c2cc1[N+](=O)[O-]` [CNQX, Cyanquixalin], for which, in assay [1] (setting [5]), the “Burst Frequency (Hz)” value came out at 0.02 Hz, the “Interspike Interval in a burst” value stood at 0.03 s, the “Network Burst (NB) Frequency” value was determined as 0 and the “Number of Active Electrodes” value was determined as 2. The “Weighted Mean Firing Rate (Hz)” value in assay [1] (setting [5]) came out at 0.6 Hz. Further, in assay [1] (setting [6]), the “Burst Frequency (Hz), effect vs reference BENO” value is recorded as “↔ (<2SD change)”; the “Interspike Interval in a burst (s), effect vs reference BENO” value is reported as “↑ (>2SD increase)”; the “Network Burst (NB) Frequency, effect vs reference BENO” value was “↓ (>2SD decrease)”; the “Number of Active Electrodes, effect vs reference BENO” value is on record as “↓ (>2SD decrease)”. Besides, the “Weighted Mean Firing Rate (Hz), effect vs reference BENO” value in assay [1] (setting [6]) was “↓ (>2SD decrease)”. The “Interspike interval in a burst, change in words” value in assay [1] (BENO day 60, after treatment) was “higher”. Besides, in assay [1] (setting [7]), the “Network burst frequency, change in words” value is “decrease”; the “Burst frequency, change in words” value is “reduced to the predetermined threshold of 2× SD, though not exceeding it; also recorded: decrease; also recorded: reduced”; the “Weighted mean firing rate, change in words” value is recorded as “decrease; also recorded: reduced”.

`C=C(C)[C@@H]1[C@H]2OC(=O)[C@@H]1[C@]1(O)C[C@H]3OC34C(=O)O[C@H]2[C@@]41C.CC(C)(O)[C@@H]1[C@H]2OC(=O)[C@@H]1[C@]1(O)C[C@H]3OC34C(=O)O[C@H]2[C@@]41C` (stereo partly shown) [PIC, Picrotoxin]: in assay [1] (setting [5]), the “Burst Frequency (Hz)” value came out at 0.2 Hz, the “Interspike Interval in a burst” value turned out to be 0.02 s, the “Network Burst (NB) Frequency” value turned out to be 0.09 and the “Number of Active Electrodes” value stood at 23. Further, in assay [1] (setting [5]), the “Weighted Mean Firing Rate (Hz)” value was 4.7 Hz, the “Interspike Interval in a NB” value was found to be 0.002 s, the “NB Duration” value stood at 1.4 ± 0.4 s and the NB percentage was determined as 43 ± 42. Further, in assay [1] (BENO day 60), the “Spontaneous activity, change in words” value is on record as “increased”. Moreover, in assay [1] (setting [6]), the “Burst Frequency (Hz), effect vs reference BENO” value is listed as “↑ (>2SD increase)”; the “Interspike Interval in a burst (s), effect vs reference BENO” value was “↔ (<2SD change)”; the “Network Burst (NB) Frequency, effect vs reference BENO” value is recorded as “↑ (>2SD increase)”; the “Number of Active Electrodes, effect vs reference BENO” value was “↔ (<2SD change)”. Besides, in assay [1] (setting [6]), the “Weighted Mean Firing Rate (Hz), effect vs reference BENO” value is on record as “↑ (>2SD increase)”; the “Interspike Interval in a NB (s), effect vs reference BENO” value is recorded as “↔ (<2SD change)”; the “NB Duration (s), effect vs reference BENO” value is recorded as “↑ (>2SD increase)”; the “NB percentage, effect vs reference BENO” value is “↔ (<2SD change)”. Also, in assay [1] (setting [7]), the “Network burst duration (network burst complexity), change in words” value is “decreased”; the “Network burst frequency, change in words” value is on record as “increased”; the “Burst frequency, change in words” value is recorded as “increase”; the “Weighted mean firing rate, change in words” value is listed as “increase”. Besides, in assay [1] (setting [8]), the “Burst frequency, change in words” value is on record as “increases” and the “Weighted mean firing rate, change in words” value is “increased”.

The IC50 is the point on the concentration scale where inhibition reaches its midpoint. Compound `Cc1ccc(=O)n(-c2ccccc2)c1` [Pirfenidone] displayed an IC50 in assay [2] of 430 µg/mL (≈ 2320 µM).

In the case of “TGF-B1: pro-fibrotic cytokine applied at 5 ng/ml to reference ECT”, in assay [3], the “Contraction (%)” value was 39.4%. Also, the “Young's modulus (kPa)” value in assay [4] was determined as 76.4 kPa.
